Source: patent publication US20150148538A1, “USE OF AN H4 AGONIST MOLECULE TO TREAT ACUTE LEUKEMIA” (priority 2013, published 2015)

How the values were obtained:
Solubility in water = format: physicochemical; conditions: including with fetal calf serum added
Excerpt: We dilute the tritoqualine in dimethyl sulfoxide, also called DMSO.

histamine H4 receptor [1] = target: T1, histamine H4 receptor (Homo sapiens, UniProt Q9H3N8); conditions: unit not given; cited from earlier work
TF1 line = test: Proliferation inhibition of TF1 myeloid leukemia line (cell count or XTT test); format: cell-based
Experimental: (§1) The myeloid line is represented by the following clonal malignant cells: the HL60 line and the TF1 line. TF1 constitutively expresses the histamine H4 receptor and proliferates in response to GMCSF.
(§2) Tritoqualine, a mixture of 2 enantiomers, has been tested on this line between 10^−5 and 10^−7M with or without CB 10^−5M addition.
(§3) The TF1 line and the HL60 line are represented by inoculates of 100,000 cells in one milliliter incubated for 3 days with GM-CSF (10 ng/ml).
(§4) The reading is done on the third day and the number of cells in the proliferation phase is measured. […] Normally, all of the cells are in the proliferation phase when the cells are stimulated with GMCSF.
(§5) The results are expressed in proliferation inhibition % (n=3): The result is the Mean of the three tests performed.
(§6) The results are expressed in estimated proliferation inhibition % by cell count or by rock proliferation test. This test measures the incorporation of a dye when the cells are proliferating (XTT test).

histamine H4 receptor [2] = target: T1, histamine H4 receptor; test: Reversal of tritoqualine effect by a histamine H4 antagonist; format: cell-based; conditions: with a histamine H4 antagonist; myeloid cells
Excerpt: This appears to indicate that the H4 agonist effect is indeed responsible for the activity of tritoqualine.

Pre T line = test: Proliferation inhibition of Pre T lymphoid line (cell count or XTT test); format: cell-based
Experimental: (§7) The lymphoid line is represented by the following clonal malignant cells: the Pre T line and the Pro B line. The cells are cultured using the same technique as the myeloid lines.
(§8) The reading is done on the third day, and the number of cells in the proliferation phase is measured. The ratio between the cells in the proliferation phase and the cells that are not proliferating yields the percentage of cells in inhibition. Normally, all of the cells are in the proliferation phase when the cells are stimulated with GMCSF.
(§9) The results are expressed in proliferation inhibition % (n=3): The result is the Mean of the three tests done.
as §6

[3] = white powder; breaks down into Cotarnine and phthalic acid; cited from earlier work
Pro B line = test: Proliferation inhibition of Pro B lymphoid line (cell count or XTT test); format: cell-based
Experimental: as §7, §8, §9, §6

HL60 line = test: Proliferation inhibition of HL60 myeloid leukemia line (cell count or XTT test); format: cell-based; conditions: tritoqualine at 10^-5; 3 days with GM-CSF 10 ng/ml; mean of n=3
Experimental: as §1, §2, §3, §4, §5, §6

solubility in water (Solubility in water)	effect of a histamine H4 antagonist on the effect of tritoqualine (histamine H4 receptor [2])	Structure (SMILES)	affinity (histamine H4 agonist) (histamine H4 receptor [1])	proliferation inhibition % of TF1 cells (TF1 line; tritoqualine at 10^-5, 3 days with GM-CSF 10 ng/ml, mean of n=3)	blocking of proliferation of Pre T cells (in words) (Pre T line)	proliferation inhibition % of Pre T cells (Pre T line; at 10^-5, reading on third day, mean of n=3)	sensitivity to light [3]	blocking of proliferation of Pro B cells (in words) (Pro B line)	proliferation inhibition % of Pro B cells (Pro B line; at 10^-5, reading on third day, mean of n=3, equal to the control without product)	proliferation inhibition % of HL60 cells (HL60 line)	inhibition of proliferation of the myeloid line (in words) (TF1 line; 'this line' (myeloid, TF1), dose of 10^-5M)
low solubility	inhibits the effect of tritoqualine	CCOc1c(N)c2c(c(OCC)c1OCC)C(C1c3c(cc4c(c3OC)OCO4)CCN1C)OC2=O (centres unmarked) [tritoqualine, (AMINO-7 TRIETHOXY-4,5,6 OXO-1 DIHYDRO-1,3 ISOBENZOFURANNYL-3)-1 METHOXY-8 METHYL-2METHYLENEDIOXY-6,7 TETRAHYDRO-,2,3,4 ISOQUINOLEINE]	10^−6	approximately 58%	block the proliferation	approximately 45%	very sensitive to light	not	15%	~68%	
		NC(=NCc1ccc(Cl)cc1)SCCCc1cnc[nH]1 [Clobenpropit]	10^−9		block the proliferation			not			inhibits the proliferation
